Results as given in paper PMC10046369, “Low-Affinity/High-Selectivity Dopamine Transport Inhibition Sufficient to Rescue Cognitive Functions in the Aging Rat” (Biomolecules, 2023).

What was measured:
Test in all cases: biochemical
Set-up in all cases: KINOMEscan competition binding panel, per cent of control
Conditions in all cases: read-out: %Ctrl @ 2800nM
AKT1 = AKT1 (Homo sapiens, UniProt P31749)
Summary of the method: (§1)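 Competition binding panel (KINOMEscan) across 450 human kinases and disease-relevant mutants, run to the contractor's standard protocol. Values are % control: (test signal − positive control signal)/(negative control signal − positive control signal) × 100, with lower values indicating stronger binding.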

BIKE = biological target: T1, BIKE (Homo sapiens, UniProt Q9NSY1)
T1 construct: gene BMP2K
T1 sequence (Q9NSY1 whole entry): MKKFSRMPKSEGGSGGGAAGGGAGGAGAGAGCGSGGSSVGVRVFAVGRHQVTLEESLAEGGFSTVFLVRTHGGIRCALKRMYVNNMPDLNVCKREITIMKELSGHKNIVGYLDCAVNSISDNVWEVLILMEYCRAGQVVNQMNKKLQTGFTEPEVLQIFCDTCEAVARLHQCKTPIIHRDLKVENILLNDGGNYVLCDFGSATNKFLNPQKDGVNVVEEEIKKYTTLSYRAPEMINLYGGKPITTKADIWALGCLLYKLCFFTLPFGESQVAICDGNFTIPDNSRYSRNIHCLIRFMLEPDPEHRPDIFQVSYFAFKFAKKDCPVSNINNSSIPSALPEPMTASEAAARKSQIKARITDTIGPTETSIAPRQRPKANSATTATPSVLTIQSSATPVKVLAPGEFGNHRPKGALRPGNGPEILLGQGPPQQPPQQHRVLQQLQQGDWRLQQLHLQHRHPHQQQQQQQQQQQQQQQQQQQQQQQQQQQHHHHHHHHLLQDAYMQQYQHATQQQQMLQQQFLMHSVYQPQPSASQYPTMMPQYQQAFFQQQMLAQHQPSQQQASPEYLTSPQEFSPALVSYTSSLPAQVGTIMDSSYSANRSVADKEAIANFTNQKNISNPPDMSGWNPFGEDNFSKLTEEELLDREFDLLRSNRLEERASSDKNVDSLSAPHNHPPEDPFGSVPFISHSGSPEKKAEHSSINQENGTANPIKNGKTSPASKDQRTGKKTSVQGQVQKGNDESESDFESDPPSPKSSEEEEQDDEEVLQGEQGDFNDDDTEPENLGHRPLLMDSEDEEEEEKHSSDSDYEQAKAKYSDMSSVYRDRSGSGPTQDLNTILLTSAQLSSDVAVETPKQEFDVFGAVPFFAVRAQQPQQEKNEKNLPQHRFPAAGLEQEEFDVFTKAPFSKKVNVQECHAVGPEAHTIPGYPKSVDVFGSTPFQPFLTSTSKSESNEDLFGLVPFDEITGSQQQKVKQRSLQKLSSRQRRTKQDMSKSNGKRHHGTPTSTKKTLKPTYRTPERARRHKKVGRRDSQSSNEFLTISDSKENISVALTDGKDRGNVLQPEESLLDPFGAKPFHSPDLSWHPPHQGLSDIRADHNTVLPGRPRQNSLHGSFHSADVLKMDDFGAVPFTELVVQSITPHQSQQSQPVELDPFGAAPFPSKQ
Summary of the method: as §1

BMPR2 = BMPR2 (Homo sapiens, UniProt Q13873)
Summary of the method: as §1

BRSK2 = BRSK2 (Homo sapiens, UniProt Q8IWQ3)
Summary of the method: as §1

CDC2L2 = biological target: T2, CDC2L2 (Homo sapiens, UniProt Q9UQ88)
T2 construct: gene CDK11A
T2 sequence (Q9UQ88 whole entry): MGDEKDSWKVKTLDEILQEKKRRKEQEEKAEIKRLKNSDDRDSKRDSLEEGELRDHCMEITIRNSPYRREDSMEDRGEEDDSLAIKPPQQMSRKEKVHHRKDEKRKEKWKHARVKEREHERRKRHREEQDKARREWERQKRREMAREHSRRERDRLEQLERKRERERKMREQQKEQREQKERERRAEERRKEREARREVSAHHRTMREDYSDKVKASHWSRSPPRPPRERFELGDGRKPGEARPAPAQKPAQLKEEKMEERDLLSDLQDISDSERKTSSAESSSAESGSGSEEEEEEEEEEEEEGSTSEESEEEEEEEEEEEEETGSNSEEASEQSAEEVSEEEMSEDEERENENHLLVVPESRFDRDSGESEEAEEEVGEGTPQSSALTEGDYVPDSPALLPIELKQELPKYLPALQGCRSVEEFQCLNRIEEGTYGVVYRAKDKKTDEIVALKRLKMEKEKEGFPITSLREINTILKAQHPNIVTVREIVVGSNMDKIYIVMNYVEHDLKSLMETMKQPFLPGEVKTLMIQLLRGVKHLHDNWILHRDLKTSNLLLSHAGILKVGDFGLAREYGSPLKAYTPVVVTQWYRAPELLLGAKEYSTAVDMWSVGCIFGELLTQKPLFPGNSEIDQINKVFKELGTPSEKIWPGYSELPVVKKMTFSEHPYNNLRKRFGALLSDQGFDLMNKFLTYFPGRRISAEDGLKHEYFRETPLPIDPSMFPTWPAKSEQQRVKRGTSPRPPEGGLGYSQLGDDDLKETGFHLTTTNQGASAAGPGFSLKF
Summary of the method: as §1

CDK2 = CDK2 (Homo sapiens, UniProt P24941)
Summary of the method: as §1

DRAK1 = biological target: T3, DRAK1 (Homo sapiens, UniProt Q9UEE5)
T3 construct: gene STK17A
Summary of the method: as §1

DYRK2 = DYRK2 (Homo sapiens, UniProt Q92630)
Summary of the method: as §1

EGFR = EGFR (Homo sapiens, UniProt P00533)
Summary of the method: as §1

[1] = biological target: EGFR(L747-E749del, A750P) (Homo sapiens, UniProt P00533, A750P/DEL747-749)
Summary of the method: as §1

EPHB1 = EPHB1 (Homo sapiens, UniProt P54762)
Summary of the method: as §1

ERBB3 = ERBB3 (Homo sapiens, UniProt P21860)
Summary of the method: as §1

ERK2 = biological target: T4, ERK2 (Homo sapiens, UniProt P28482)
T4 construct: gene MAPK1
T4 sequence (P28482 whole entry): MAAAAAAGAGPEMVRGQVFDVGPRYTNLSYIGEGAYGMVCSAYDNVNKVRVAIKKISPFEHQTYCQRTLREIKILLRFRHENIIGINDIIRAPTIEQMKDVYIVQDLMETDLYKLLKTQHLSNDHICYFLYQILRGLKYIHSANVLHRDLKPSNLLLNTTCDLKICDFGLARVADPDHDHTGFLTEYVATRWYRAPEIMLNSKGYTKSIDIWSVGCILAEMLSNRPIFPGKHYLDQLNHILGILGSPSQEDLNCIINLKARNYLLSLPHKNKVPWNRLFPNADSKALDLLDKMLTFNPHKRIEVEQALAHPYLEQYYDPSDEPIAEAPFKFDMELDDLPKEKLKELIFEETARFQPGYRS
Summary of the method: as §1

FLT3(D835Y) = FLT3(D835Y) (Homo sapiens, UniProt P36888, D835Y)
Summary of the method: as §1

GCN2(Kin.Dom.2,S808G) = biological target: T5, GCN2(Kin.Dom.2,S808G) (Homo sapiens, UniProt Q9P2K8, S808G)
T5 construct: gene EIF2AK4; Kin.Dom.2
T5 sequence (Q9P2K8 whole entry S808G): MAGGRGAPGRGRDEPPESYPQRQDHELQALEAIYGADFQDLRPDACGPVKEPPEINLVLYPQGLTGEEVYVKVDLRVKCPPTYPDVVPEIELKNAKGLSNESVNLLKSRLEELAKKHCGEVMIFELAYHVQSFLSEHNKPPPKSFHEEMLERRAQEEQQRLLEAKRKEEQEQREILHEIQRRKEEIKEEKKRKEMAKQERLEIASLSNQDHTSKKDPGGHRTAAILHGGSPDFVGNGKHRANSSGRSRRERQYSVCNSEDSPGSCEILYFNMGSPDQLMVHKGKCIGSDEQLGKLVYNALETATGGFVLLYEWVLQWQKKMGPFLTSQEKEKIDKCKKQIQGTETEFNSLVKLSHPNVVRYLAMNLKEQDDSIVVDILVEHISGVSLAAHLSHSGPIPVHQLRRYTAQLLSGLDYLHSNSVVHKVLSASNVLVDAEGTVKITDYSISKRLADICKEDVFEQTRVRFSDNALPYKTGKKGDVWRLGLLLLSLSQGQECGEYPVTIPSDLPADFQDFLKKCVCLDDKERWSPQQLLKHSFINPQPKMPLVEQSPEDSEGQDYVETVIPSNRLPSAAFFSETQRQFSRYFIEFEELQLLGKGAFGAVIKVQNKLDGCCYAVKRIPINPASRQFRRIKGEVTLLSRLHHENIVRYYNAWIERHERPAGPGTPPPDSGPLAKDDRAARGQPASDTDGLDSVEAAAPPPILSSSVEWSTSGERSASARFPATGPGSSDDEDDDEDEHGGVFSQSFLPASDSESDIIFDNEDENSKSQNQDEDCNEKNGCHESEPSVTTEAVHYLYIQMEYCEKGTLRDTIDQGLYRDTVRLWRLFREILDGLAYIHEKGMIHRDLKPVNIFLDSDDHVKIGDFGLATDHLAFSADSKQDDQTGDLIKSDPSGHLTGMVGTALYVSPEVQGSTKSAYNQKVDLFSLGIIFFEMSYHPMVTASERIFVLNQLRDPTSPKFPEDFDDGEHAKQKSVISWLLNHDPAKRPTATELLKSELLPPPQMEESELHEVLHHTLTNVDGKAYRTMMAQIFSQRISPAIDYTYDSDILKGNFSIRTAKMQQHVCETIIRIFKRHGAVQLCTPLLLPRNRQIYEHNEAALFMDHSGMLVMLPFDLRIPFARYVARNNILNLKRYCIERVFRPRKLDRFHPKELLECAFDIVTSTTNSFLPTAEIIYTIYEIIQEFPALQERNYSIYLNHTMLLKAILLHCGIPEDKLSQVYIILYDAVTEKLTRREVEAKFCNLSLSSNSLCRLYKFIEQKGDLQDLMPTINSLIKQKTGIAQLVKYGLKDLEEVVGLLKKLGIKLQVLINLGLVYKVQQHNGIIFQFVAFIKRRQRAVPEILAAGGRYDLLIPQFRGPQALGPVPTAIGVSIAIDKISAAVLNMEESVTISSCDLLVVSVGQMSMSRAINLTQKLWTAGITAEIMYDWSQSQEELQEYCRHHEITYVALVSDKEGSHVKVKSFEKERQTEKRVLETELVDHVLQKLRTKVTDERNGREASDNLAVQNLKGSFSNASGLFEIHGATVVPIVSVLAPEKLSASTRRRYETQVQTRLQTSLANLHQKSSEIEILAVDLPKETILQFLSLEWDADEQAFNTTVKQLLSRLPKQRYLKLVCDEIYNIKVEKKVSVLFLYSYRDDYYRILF
Summary of the method: as §1

INSRR = INSRR (Homo sapiens, UniProt P14616)
Summary of the method: as §1

[2] = biological target: T6, JAK2(JH1domain-catalytic) (Homo sapiens, UniProt O60674)
T6 construct: JH1domain-catalytic
Summary of the method: as §1

MKK7 = biological target: T7, MKK7 (Homo sapiens, UniProt O14733)
T7 construct: gene MAP2K7
Summary of the method: as §1

MUSK = MUSK (Homo sapiens, UniProt O15146)
Summary of the method: as §1

PIK4CB = biological target: T8, PIK4CB (Homo sapiens, UniProt Q9UBF8)
T8 construct: gene PI4KB
T8 sequence (Q9UBF8 whole entry): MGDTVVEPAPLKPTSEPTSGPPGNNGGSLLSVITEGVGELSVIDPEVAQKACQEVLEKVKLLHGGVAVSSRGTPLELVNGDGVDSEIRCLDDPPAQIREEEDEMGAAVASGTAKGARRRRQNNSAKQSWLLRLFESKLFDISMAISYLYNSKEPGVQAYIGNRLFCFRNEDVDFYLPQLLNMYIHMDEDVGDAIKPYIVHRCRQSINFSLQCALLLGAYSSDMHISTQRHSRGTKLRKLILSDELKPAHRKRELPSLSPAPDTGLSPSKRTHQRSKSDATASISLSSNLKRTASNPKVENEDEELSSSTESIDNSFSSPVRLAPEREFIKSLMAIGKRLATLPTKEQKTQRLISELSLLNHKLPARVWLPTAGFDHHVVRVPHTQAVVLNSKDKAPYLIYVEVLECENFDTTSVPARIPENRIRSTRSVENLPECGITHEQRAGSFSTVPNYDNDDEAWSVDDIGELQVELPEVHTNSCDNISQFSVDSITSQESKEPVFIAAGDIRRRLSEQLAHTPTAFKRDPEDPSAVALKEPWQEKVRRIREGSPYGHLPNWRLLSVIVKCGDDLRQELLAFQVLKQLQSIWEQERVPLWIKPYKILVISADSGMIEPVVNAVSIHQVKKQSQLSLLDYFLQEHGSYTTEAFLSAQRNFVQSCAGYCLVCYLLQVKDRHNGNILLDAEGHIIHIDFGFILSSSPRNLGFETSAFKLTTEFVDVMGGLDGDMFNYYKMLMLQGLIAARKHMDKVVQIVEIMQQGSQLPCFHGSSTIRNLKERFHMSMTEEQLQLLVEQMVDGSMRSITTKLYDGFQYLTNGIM
Summary of the method: as §1

[3] = biological target: T9, RSK4(Kin.Dom.1-N-terminal) (Homo sapiens, UniProt Q9UK32)
T9 construct: gene RPS6KA6; Kin.Dom.1-N-terminal
Summary of the method: as §1

TAK1 = biological target: T10, TAK1 (Homo sapiens, UniProt O43318)
T10 construct: gene MAP3K7
Summary of the method: as §1

TAOK3 = TAOK3 (Homo sapiens, UniProt Q9H2K8)
Summary of the method: as §1

TBK1 = TBK1 (Homo sapiens, UniProt Q9UHD2)
Summary of the method: as §1

TRKA = biological target: T11, TRKA (Homo sapiens, UniProt P04629)
T11 construct: gene NTRK1
Summary of the method: as §1

Structure (SMILES): [O-][S@@+](Cc1cncs1)C(c1ccccc1)c1ccccc1 [S-CE-123, (S)-5-((Benzhydrylsulfinyl)Methyl)Thiazole]
- remaining binding at 2.8 µM (AKT1): 99%
- remaining binding at 2.8 µM (BIKE): 97%
- remaining binding at 2.8 µM (BMPR2): 100%
- remaining binding at 2.8 µM (BRSK2): 100%
- remaining binding at 2.8 µM (CDC2L2): 98%
- remaining binding at 2.8 µM (CDK2): 94%
- remaining binding at 2.8 µM (DRAK1): 95%
- remaining binding at 2.8 µM (DYRK2): 86%
- remaining binding at 2.8 µM (EGFR): 92%
- remaining binding at 2.8 µM [1]: 93%
- remaining binding at 2.8 µM (EPHB1): 100%
- remaining binding at 2.8 µM (ERBB3): 89%
- remaining binding at 2.8 µM (ERK2): 95%
- remaining binding at 2.8 µM (FLT3(D835Y)): 99%
- remaining binding at 2.8 µM (GCN2(Kin.Dom.2,S808G)): 100%
- remaining binding at 2.8 µM (INSRR): 94%
- remaining binding at 2.8 µM [2]: 100%
- remaining binding at 2.8 µM (MKK7): 100%
- remaining binding at 2.8 µM (MUSK): 100%
- remaining binding at 2.8 µM (PIK4CB): 94%
- remaining binding at 2.8 µM [3]: 100%
- remaining binding at 2.8 µM (TAK1): 71%
- remaining binding at 2.8 µM (TAOK3): 91%
- remaining binding at 2.8 µM (TBK1): 100%
- remaining binding at 2.8 µM (TRKA): 100%
